According to patent US11851447B2, “Dinuclear platinum(II) compounds and methods of use thereof” (UNIVERSITY OF IOWA RESEARCH FOUNDATION, priority 2019, dated 2023):
pIC50: −log10 of the molar value. Where a name gives a salt, the structure may show the parent alone.

Molecular target: DNAse I
Assay: DNAse I inhibitor assay based on NIR emission of 4/QIII ensemble
Format: biochemical
Settings: [4]=4 μM, [QIII]=8 μM, [DNAse I]=4 U/ml, NIR emission at 785 nm; read-out: IC50 (DNAse I inhibition)
Experimental: General Procedure for Multiwell DNAse I Assay. A reaction mixture (total volume of 100 μL) containing 4 (4 μM) and QIII (8 μM) was prepared in 9:1 Tris buffer (10 mM Tris-HCl, 0.25 mM MgCl2, 0.1 mM CaCl2, pH 7.5):DMSO. Tris buffer was prepared using nuclease-free water. The reaction mixtures were prepared in white 96-well plates (Costar, Corning, NY) and incubated at room temperature for 2 min. Varying concentrations of DNAse I prepared in Tris buffer (10 mM Tris-HCl, 0.25 mM MgCl2, 0.1 mM CaCl2, pH 7.5) were added to the reaction mixture and incubated at room temperature for 10 min. Fluorescence spectra were obtained using Agilent Cary Eclipse fluorescence spectrophotometer, λex=445 nm. NIR emission intensity at 785 nm was detected.
Determination of IC50 Values of DNAse I Inhibitors. DNAse I assay was performed as previously described in the presence of DNAse I (4 U) and various concentrations of the inhibitor. Stock solutions of the inhibitors were prepared in Tris buffer (10 mM Tris-HCl, pH 7.5). The IC50 values were calculated by plotting log[inhibitor] versus NIR emission intensity of 4. The dose-response curves were analyzed by nonlinear regression using GraphPad Prism 8.0 (GraphPad Software, Inc., La Jolla, CA, USA).

Row | pIC50 | Structure (SMILES)
1 | 5.64 | N=C(N)NNc1ccc(NNC(=N)N)cc1 [JR-132, 1,4-phenylene-bis-aminoguanidine hydrochloride]
2 | 4.68 | [Cl-].[Cl-].[Zn+2] [ZnCl2]

Row | Structure (SMILES) | pIC50
3 | O=C(O)CN(CCN(CC(=O)O)CC(=O)O)CC(=O)O [EDTA] | 3.69

Molecular target: DNAse I
Assay: not given
Settings: previously reported values (Jang et al., J. Biomol. Screen. 2015); cited from earlier work

Row | Structure (SMILES) | pIC50
4 | O=C(O)CN(CCN(CC(=O)O)CC(=O)O)CC(=O)O [EDTA] | 3.72
5 | N=C(N)NNc1ccc(NNC(=N)N)cc1 [JR-132, 1,4-phenylene-bis-aminoguanidine hydrochloride] | 5.56
6 | [Cl-].[Cl-].[Zn+2] [ZnCl2] | 4.74
